Measurements reported in patent US6355799B1, “Substituted benzene compounds, process for their preparation, and herbicidal and defoliant compositions containing them” (ISK Americas Incorporated, priority 1997, dated 2002).

Legend:
Assay type in all cases: in vivo
[1] = tested on: redroot pigweed (Amaranthus retroflexus, AMARE); assay: Pre-emerge test, greenhouse herbicide activity screening; conditions: rating scale 0-100, 14 days after application
Method in brief: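 Sandy loam pots; pre-emerge: sown 1 d pre-spray, surface-watered after, then bottom-watered. Post-emerge: sown 8–21 d before, 2–3 leaf stage, + 0.25% v/v NIS, bottom-watered. Acetone, 187 l/ha track spray, 15–1000 g ai/ha. 0–100 injury score, day 14.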

[2] = tested on: johnsongrass (Sorghum halepense, SORHA); assay: Post-emerge test, greenhouse herbicide activity screening; conditions: rating scale 0-100 (0 no damage, 100 complete death), 14 days after application
Method in brief: (§1)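 Compounds in acetone were track-sprayed at 15-1000 g ai/ha (187 l/ha) on sandy loam pots: pre-emerge one day after seeding, post-emerge at 2-3 leaf stage with 0.25% v/v non-ionic surfactant. Phytotoxicity was rated 14 days later on a 0 (no damage) to 100 (complete death) scale.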

[3] = tested on: lambsquarters (Chenopodium album, CHEAL); assay: as above; conditions: rating scale 0-100 (0 no damage, 100 complete death), 14 days after application
Method in brief: as §1

[4] = tested on: velvetleaf (Abutilon theophrasti, ABUTH); assay: as above; conditions: rating scale 0-100 (0 no damage, 100 complete death), 14 days after application
Method in brief: as §1

[5] = tested on: green foxtail (Setaria viridis, SETVI); assay: as above; conditions: rating scale 0-100 (0 no damage, 100 complete death), 14 days after application
Method in brief: as §1

[6] = tested on: barnyardgrass (Echinochloa crus-galli, ECHCG); assay: as above; conditions: rating scale 0-100 (0 no damage, 100 complete death), 14 days after application
Method in brief: as §1

[7] = tested on: sicklepod (Cassia obtusifolia, CASOB); assay: as above; conditions: rating scale 0-100 (0 no damage, 100 complete death), 14 days after application
Method in brief: as §1

[8] = tested on: common ragweed (Ambrosia artemisizfolia L., AMBEL); assay: as above; conditions: rating scale 0-100 (0 no damage, 100 complete death), 14 days after application
Method in brief: as §1

[9] = tested on: redroot pigweed (Amaranthus retroflexus, AMARE); assay: as above; conditions: rating scale 0-100 (0 no damage, 100 complete death), 14 days after application
Method in brief: as §1

[10] = tested on: ivyleaf morningglory (Ipomoea hederacea, IPOHE); assay: as above; conditions: rating scale 0-100 (0 no damage, 100 complete death), 14 days after application
Method in brief: as §1

[11] = tested on: large crabgrass (Digitaria sanguinalis, DIGSA); assay: as above; conditions: rating scale 0-100 (0 no damage, 100 complete death), 14 days after application
Method in brief: as §1

[12] = tested on: field corn (Zea mays L., var. Dekalb 535, CORN); assay: Pre-emerge test, crop safety; conditions: rating scale 0-100, 14 days after application
Method in brief: (§2)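 Visual ratings on a 0-100 scale (0 no damage, 100 all plants dead) were taken at 14 days after treatment. Rates of 15-1000 g ai/ha in acetone, 187 l/ha, were sprayed onto soil one day after planting (pre-emerge) or onto 2-3 leaf plants with 0.25% v/v surfactant (post-emerge).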

[13] = tested on: upland rice (Oryza sp., var. Tebonnet, RICE); assay: Pre-emerge test, crop safety; conditions: rating scale 0-100, 14 days after application
Method in brief: as §2

[14] = tested on: johnsongrass (Sorghum halepense, SORHA); assay: Pre-emerge test, greenhouse herbicide activity screening; conditions: rating scale 0-100, 14 days after application
Method in brief: (§3)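 Rating: 0–100 visual injury, 14 DAA. Application: acetone, 187 l/ha, 15–1000 g ai/ha, flat-fan track sprayer with nozzle 40–45 cm above soil or canopy. Post-emerge runs used 0.25% v/v surfactant on 2–3 leaf plants.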

[15] = tested on: lambsquarters (Chenopodium album, CHEAL); assay: as above; conditions: rating scale 0-100, 14 days after application
Method in brief: as §3

[16] = tested on: velvetleaf (Abutilon theophrasti, ABUTH); assay: as above; conditions: rating scale 0-100, 14 days after application
Method in brief: as §3

[17] = tested on: green foxtail (Setaria viridis, SETVI); assay: as above; conditions: rating scale 0-100, 14 days after application
Method in brief: as §3

[18] = tested on: barnyardgrass (Echinochloa crus-galli, ECHCG); assay: as above; conditions: rating scale 0-100, 14 days after application
Method in brief: as §3

[19] = tested on: sicklepod (Cassia obtusifolia, CASOB); assay: as above; conditions: rating scale 0-100, 14 days after application
Method in brief: as §3

[20] = tested on: common ragweed (Ambrosia artemisizfolia L., AMBEL); assay: as above; conditions: rating scale 0-100, 14 days after application
Method in brief: as §3

[21] = tested on: ivyleaf morningglory (Ipomoea hederacea, IPOHE); assay: as above; conditions: rating scale 0-100, 14 days after application
Method in brief: as §3

[22] = tested on: large crabgrass (Digitaria sanguinalis, DIGSA); assay: as above; conditions: rating scale 0-100, 14 days after application
Method in brief: as §3

[23] = tested on: field corn (Zea mays L., var. Dekalb 535, CORN); assay: Post-emerge test, crop safety; conditions: rating scale 0-100 (0 no damage, 100 complete death), 14 days after application
Method in brief: (§4)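 Plants grown in 10 cm pots of sandy loam mix received acetone-dissolved compounds through a moving flat-fan nozzle. Doses ranged from 15 to 1000 g ai/ha. Pre-emerge pots were seeded one day earlier, post-emerge pots 8–21 days earlier. Fourteen days on, each pot was graded 0–100 for damage.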

[24] = tested on: upland rice (Oryza sp., var. Tebonnet, RICE); assay: Post-emerge test, crop safety; conditions: rating scale 0-100 (0 no damage, 100 complete death), 14 days after application
Method in brief: as §4

CCCCOC(=O)C(C)(Cl)Cc1c(OC)c(Cl)cc(F)c1-n1c(=O)cc(C(F)(F)F)n(C)c1=O (stereo not drawn) [14-36]
99: Post-emerge Herbicidal Activity, phytotoxicity rating CHEAL ([3]; Rate 63 g ai/ha) | Post-emerge Herbicidal Activity, phytotoxicity rating SETVI ([5]; Rate 250 g ai/ha) | Post-emerge Herbicidal Activity, phytotoxicity rating ECHCG ([6]; Rate 63 g ai/ha)
95: Post-emerge Herbicidal Activity, phytotoxicity rating ABUTH ([4]; Rate 63 g ai/ha) | Post-emerge Herbicidal Activity, phytotoxicity rating AMBEL ([8]; Rate 250 g ai/ha) | Pre-emerge herbicidal activity, phytotoxicity rating SETVI ([17]; 250 g ai/ha) | Pre-emerge herbicidal activity, phytotoxicity rating DIGSA ([22]; 250 g ai/ha) | Post-emerge phytotoxicity rating CORN (crop damage) ([23]; Rate 63 g ai/ha) | Post-emerge phytotoxicity rating CORN (crop damage) ([23]; Rate 250 g ai/ha)
30: Post-emerge Herbicidal Activity, phytotoxicity rating IPOHE ([10]; Rate 63 g ai/ha) | Pre-emerge herbicidal activity, phytotoxicity rating SORHA ([14]; 250 g ai/ha) | Pre-emerge herbicidal activity, phytotoxicity rating DIGSA ([22]; 63 g ai/ha)
35: Post-emerge phytotoxicity rating RICE (crop damage) ([24]; Rate 63 g ai/ha)
65: Post-emerge Herbicidal Activity, phytotoxicity rating DIGSA ([11]; Rate 250 g ai/ha)
100: Pre-emerge herbicidal activity, phytotoxicity rating AMARE ([1]; 250 g ai/ha) | Post-emerge Herbicidal Activity, phytotoxicity rating CHEAL ([3]; Rate 250 g ai/ha) | Post-emerge Herbicidal Activity, phytotoxicity rating ABUTH ([4]; Rate 250 g ai/ha) | Post-emerge Herbicidal Activity, phytotoxicity rating ECHCG ([6]; Rate 250 g ai/ha) | Post-emerge Herbicidal Activity, phytotoxicity rating AMBEL ([8]; Rate 63 g ai/ha) | Post-emerge Herbicidal Activity, phytotoxicity rating AMARE ([9]; Rate 63 g ai/ha) | Post-emerge Herbicidal Activity, phytotoxicity rating AMARE ([9]; Rate 250 g ai/ha) | Pre-emerge herbicidal activity, phytotoxicity rating CHEAL ([15]; 250 g ai/ha) | Pre-emerge herbicidal activity, phytotoxicity rating ABUTH ([16]; 63 g ai/ha) | Pre-emerge herbicidal activity, phytotoxicity rating ABUTH ([16]; 250 g ai/ha)
10: Pre-emerge phytotoxicity rating, crop damage CORN ([12]; 250 g ai/ha) | Pre-emerge phytotoxicity rating, crop damage RICE ([13]; 63 g ai/ha) | Pre-emerge herbicidal activity, phytotoxicity rating SETVI ([17]; 63 g ai/ha) | Pre-emerge herbicidal activity, phytotoxicity rating AMBEL ([20]; 63 g ai/ha)
20: Post-emerge Herbicidal Activity, phytotoxicity rating SORHA ([2]; Rate 63 g ai/ha) | Post-emerge Herbicidal Activity, phytotoxicity rating CASOB ([7]; Rate 63 g ai/ha)
75: Pre-emerge herbicidal activity, phytotoxicity rating AMARE ([1]; 63 g ai/ha) | Pre-emerge herbicidal activity, phytotoxicity rating CHEAL ([15]; 63 g ai/ha)
40: Post-emerge Herbicidal Activity, phytotoxicity rating SORHA ([2]; Rate 250 g ai/ha) | Post-emerge Herbicidal Activity, phytotoxicity rating CASOB ([7]; Rate 250 g ai/ha) | Post-emerge Herbicidal Activity, phytotoxicity rating DIGSA ([11]; Rate 63 g ai/ha)
85: Post-emerge Herbicidal Activity, phytotoxicity rating SETVI ([5]; Rate 63 g ai/ha)
70: Post-emerge Herbicidal Activity, phytotoxicity rating IPOHE ([10]; Rate 250 g ai/ha) | Pre-emerge phytotoxicity rating, crop damage RICE ([13]; 250 g ai/ha)
0: Pre-emerge phytotoxicity rating, crop damage CORN ([12]; 63 g ai/ha) | Pre-emerge herbicidal activity, phytotoxicity rating SORHA ([14]; 63 g ai/ha) | Pre-emerge herbicidal activity, phytotoxicity rating ECHCG ([18]; 63 g ai/ha) | Pre-emerge herbicidal activity, phytotoxicity rating CASOB ([19]; 63 g ai/ha) | Pre-emerge herbicidal activity, phytotoxicity rating CASOB ([19]; 250 g ai/ha) | Pre-emerge herbicidal activity, phytotoxicity rating IPOHE ([21]; 63 g ai/ha) | Pre-emerge herbicidal activity, phytotoxicity rating IPOHE ([21]; 250 g ai/ha)
60: Post-emerge phytotoxicity rating RICE (crop damage) ([24]; Rate 250 g ai/ha)
90: Pre-emerge herbicidal activity, phytotoxicity rating ECHCG ([18]; 250 g ai/ha)
80: Pre-emerge herbicidal activity, phytotoxicity rating AMBEL ([20]; 250 g ai/ha)
